One data set in a line: Water solubility. The data set is classed as physicochemical. An excerpt: In vitro testing has shown that due to its poor water solubility, triclosan is released from these films only slowly over […] period, with minimal initial burst release.
Data set [1] can be described thus: Stability of gentamicin sulfate to manufacturing conditions (heat, organic solvents). It counts as physicochemical. An excerpt:
In one embodiment, the drug selected must be stable during the manufacturing processes required to fabricate the implant.

In the case of `Oc1cc(Cl)ccc1Oc1ccc(Cl)cc1Cl` [triclosan, 2,4,4′-trichloro-2′-hydroxydiphenyl ether], the water solubility entry in the data set “Water solubility” is given as “poor”. With Gentamicin sulfate, in data set [1], the “thermal stability (thermally stable above)” value is “above 100 °C”. Also, the “stability to organic solvents” value in data set [1] (organic solvents including DMSO) was “stable”.
